Patent publication US5574010A, “Treatment of pancreatic tumors with peptide YY and analogs thereof” (The Regents of The University of California, priority 1994, dated 1996)

Experiments:
PANC-1 = experiment: MTT viability assay, in vitro anti-proliferative activity; type: cell-based, human; conditions: 36 hours, vs saline control
Procedure: (§1) PANC-1 and MiaPaCa-2 are two human pancreatic adenocarcinomas cancer cell lines which are available commercially from suppliers such as American Type Culture Collection, ATCC (Rockville, Md.). For this example, the two tumor cells were grown in RPMI-1640 culture media supplemented with 10% fetal bovine serum, 29.2 mg/L of glutamine, 25 μg gentamicin, 5 ml penicillin, streptomycin, and fungizone solution (JRH Biosciences, Lenexa, Kans.) at 37° Celsius in a NAPCO water jacketed 5 % CO2 incubator. All cell lines were detached with 0.25 % trypsin (Clonetics, San Diego, Calif.) once to twice a week when a confluent monolayer of tumor cells was achieved. Cells were pelleted for 7 minutes at 500 g in a refrigerated centrifuge at 4 ° Celsius, and resuspended in trypsin free fortified RPMI 1640 culture media. Viable cells were counted on a hemocytometer slide with trypan blue.
(§2) Ten thousand, 20,000, 40,000 and 80,000 cells of each type were added to 96 well microculture plates (Costar, Cambridge, Mass.) in a total volume of 200 μl of culture media per well. Cells were allowed to adhere for 24 hours prior to addition of the PYY or Analog #1 peptides. Fresh culture media was exchanged prior to addition of peptides. In vitro incubation of pancreatic tumor cells with either PYY or Analog #1 was continued for 6 hours and 36 hours in length. PYY was added to cells at doses of 250 pmol, 25 pmol, and 2.5 pmol per well (N =14). Analog #1 was added to cells cultures at doses of 400 pmol, 40 pmol, and 4 pmol per well. Control wells received 2 μl of 0.9% saline to mimic the volume and physical disturbance upon adhered tumor cells. Each 96 well plate contained 18 control wells to allow for comparison within each plate during experimentation. Ninety-six (96) well plates were repeated 6 times with varying concentrations of PYY and Analog #1 in both the PANC-1 and MiaPaCa-2 cells.
(§3) At the end of the incubation period, 3-(4,5-dimethylthiazolyl-2-yl)-2,5-diphenyltetrazolium Bromide, MTr tetrazolium bromide (Sigma, St. Louis, Mo.) was added to fresh culture media at 0.5 mg/ml. Culture media was exchanged and tumor cells were incubated for 4 hours with MTT tetrazolium bromide at 37° Celsius. At the end of incubation, culture media was aspirated. Formazon crystal precipitates were dissolved in 200 μl of dimethyl sulfoxide (Sigma, St. Louis, Mo.). Quantitation of solubilized formazon was performed by obtaining absorption readings at […] wavelength on an ELISA reader (Molecular Devices, Menlo Park, Calif.). The MTT assay measures mitochondrial NADH dependent dehydrogenase activity, and it has been among the most sensitive and reliable method to quantitative in vitro chemotherapy responses of tumor cells. (Alley, M. C., Scudiero, D. A., Monk, A., Hursey, M. L., Dzerwinski, M. J., Fine, D. L., Abbott, B. J., Mayo, J. G., Shoemaker, R. H. and Boyd, M. R., Feasibility of drug screening with panels of human tumor cell lines using a microculture tetrazolium assay Cancer Res., 48:589-601, 1988; Carmichael, J., DeGraff, W. G., Gazdar, A. F., Minna, J. D. and Mitchell, J. B., Evaluation of a tetrazolium-based semiautomated colorimetric assay: Assessment of chemosensitivity testing. Cancer Res., 47:936-942, 1987; McHale, A. P., McHale, L., Use of a tetrazolium based colorimetric assay in assessing photoradiation therapy in vitro. Cancer Lett., 41:315-321, 1988; and Saxton, R. E., Huang, M. Z., Plante D., Fetterman, H. F., Lufkin, R. B., Soudant, J., Castro, D. J., Laser and daunomycin chemophototherapy of human carcinoma cells. J. Clin. Laser Med. and Surg., 10(5):331-336, 1992.)
(§4) Analysis of absorption readings at 550 nm were analyzed by grouping wells of the same test conditions and verifying differences occurring between control and the various peptide concentration treatments by one-way ANOVA. Once statistical significance was achieved, P <0.05, each test group was compared to its paired control group by Student's T-test within each 96 well plate. […]

MiaPaCa-2 = experiment: as above; type: cell-based, human; conditions: Mia PaCa-2, 36 hours, vs saline control
Procedure: as §1, §2, §3, §4

human Mia PaCa-2 cells = experiment: In vivo growth inhibition of orthotopically transplanted pancreatic ductal adenocarcinoma; conditions: male athymic mice, orthotopic Mia PaCa-2; 200 pmol/kg/hr via mini-osmotic pumps for four weeks; vs saline control
Procedure: The human pancreatic ductal adenocarcinoma Mia Paca-2 was examined for in vivo growth inhibition by peptide YY and Analog #1. Seventy thousand to 100,000 human Mia PaCa-2 cells were orthotopically transplanted into 48 male athymic mice. After one week, the animals were treated with either PYY or Analog #1 at 200 pmol/kg/hr via mini-osmotic pumps for four weeks. The paired cultures received saline. At sacrifice, both tumor size and mass were measured. Control mice had significant human cancer growth within the pancreas as evidenced by histologic sections. At 9 weeks, ninety percent (90%) of control mice had substantial metastatic disease.

Q: What does the source list for “PYY: 36 amino acid residue peptide amide isolated originally from porcine intestine; the species of the PYY tested is not stated [Peptide YY]”?
A: Percent Reduction in Tumor Growth(%) Compared to Control (PANC-1; 2.5 pmol per well): 9.8%; Percent Reduction in Tumor Growth(%) Compared to Control (PANC-1; 25 pmol per well): 14.7%; Percent Reduction in Tumor Growth(%) Compared to Control (PANC-1; 250 pmol per well): 25.7%; Percent Reduction in Tumor Growth(%) Compared to Control (MiaPaCa-2; 2.5 pmol per well): 0.5%; Percent Reduction in Tumor Growth(%) Compared to Control (MiaPaCa-2; 25 pmol per well): 12.8%; Percent Reduction in Tumor Growth(%) Compared to Control (MiaPaCa-2; 250 pmol per well): 15.4%; Tumor mass decreased (human Mia PaCa-2 cells): 27%
